In patent US12038445B2, “Liver disease-related biomarkers and methods of use thereof” (Human Metabolomics Institute, Inc., priority 2016, dated 2024):
“Also recorded” adds a separate entry of the source.

How the values were obtained:
[1] = Male mice treated with STZ alone; type: in vivo; conditions: male mice treated with STZ alone for 20 weeks
THLE-2 = test: Cell proliferation after BA treatment, THLE-2; type: cell-based, human; conditions: BA treatment 14 days in high glucose (27.5 mM) and oleic acid (0.3 mM)
Procedure: (§1) Normal human hepatic cell lines WRL-68 and THLE-2 were purchased from Sigma. For BA treatment, cells were harvested, rinsed twice in PBS, resuspended in sugar-free DMEM (Life Technologies) supplemented with 10% charcoal-stripped FBS and seeded into 6-well plate at a density of 5×10^4/well. […] After 14 days treatment, normal medium (DMEM-F12 containing 10% FBS) were added into each well to replace the spent media. Cell proliferation and anchorage-independent growth assays were performed in the normal medium. Additionally, western blot assay was performed to analyze the alteration of oncoprotein c-myc expression.

WRL-68 [2] = test: Cell proliferation after BA treatment, WRL-68; type: cell-based, human; conditions: BA treatment 14 days in high glucose (27.5 mM) and oleic acid (0.3 mM)
Procedure: as §1

HepG2 = test: Cell proliferation after BA treatment, HepG2; type: cell-based, human; conditions: BA treatment 14 days, 100 μM
Procedure: (§2) Human cancer cell line, HepG2, was purchased from Sigma and maintained in DMEM-F12 (Life Technologies) supplemented with 10% fetal bovine serum (FBS, Life Technologies). For BA treatment, cells were harvested, rinsed twice with PBS, seeded in sugar-free DMEM (Life Technologies) supplemented with 10% charcoal-stripped FBS and 6 mM glucose. […] The spent media was replaced by fresh normal medium (DMEM-F12 containing 10% FBS) 14 days later. And then cells were used for cell proliferation assay and western blot analysis for the tumor suppressor protein CEBPa.

c-myc = test: Western blot of oncoprotein c-myc in WRL-68 cells; type: cell-based, human
Procedure: as §1, with “5×10^4/well. We set the glucose (Glc, Sigma) at 27.5 mM and Oleic acid (OA, Sigma) at 0.3 mM to mimic high glucose and fat conditions in vitro.” for “5×10^4/well.”
(§3) Primary antibodies for c-myc (Santa Cruz), CEBPa (Santa Cruz) and Actin (Li-cor) were purchased and used with a diluted concentration as indicated by the manufacturers.

WRL-68 [3] = test: Anchorage-independent growth assay, WRL-68; type: cell-based, human; conditions: BA treatment under high glucose and high fat condition
Procedure: as §1, with “5×10^4/well. We set the glucose (Glc, Sigma) at 27.5 mM and Oleic acid (OA, Sigma) at 0.3 mM to mimic high glucose and fat conditions in vitro.” for “5×10^4/well.”

CEBPα = test: Western blot of tumor suppressor protein CEBPα in HepG2 cells; type: cell-based, human
Procedure: as §2, §3

CN(N=O)C(=O)N[C@H]1C(O)O[C@H](CO)[C@@H](O)[C@@H]1O (mixture of isomers) [STZ, streptozotocin]
HCC formation [1]: no HCC was observed

C[C@H](CCC(=O)O)[C@H]1CC[C@H]2[C@@H]3[C@H](O)C[C@@H]4C[C@H](O)CC[C@]4(C)[C@H]3C[C@H](O)[C@]12C [CA, cholic acid]
THLE-2 proliferation (THLE-2): significantly promoted
WRL-68 proliferation (WRL-68 [2]): significantly promoted
HepG2 cell proliferation (HepG2): significantly promoted

C[C@H](CCC(=O)O)[C@H]1CC[C@H]2[C@@H]3CC[C@@H]4C[C@H](O)CC[C@]4(C)[C@H]3C[C@H](O)[C@]12C [DCA, deoxycholic acid]
THLE-2 proliferation (THLE-2): significantly promoted
WRL-68 proliferation (WRL-68 [2]): significantly promoted
expression of oncoprotein c-myc (c-myc): increased
anchorage-independent growth of WRL-68 compared to those treated with high glucose and high fat (WRL-68 [3]): significantly increased
anchorage-independent growth of WRL-68 compared with parental cells (WRL-68 [3]): didn't enhance
HepG2 cell proliferation (HepG2): significantly promoted

CC(CCC(=O)NCC(=O)O)C1CCC2C3C(O)CC4CC(O)CCC4(C)C3CCC12C (centres unmarked) [GCDCA, glycochenodeoxycholic acid]
WRL-68 proliferation (WRL-68 [2]): very little influence

C[C@H](CCC(=O)NCCS(=O)(=O)O)[C@H]1CC[C@H]2[C@@H]3[C@H](O)C[C@@H]4C[C@H](O)CC[C@]4(C)[C@H]3C[C@H](O)[C@]12C [TCA, taurocholic acid]
WRL-68 proliferation (WRL-68 [2]): very little influence

C[C@H](CCC(=O)NCCS(=O)(=O)O)[C@H]1CC[C@H]2[C@@H]3[C@H](O)C[C@@H]4C[C@H](O)CC[C@]4(C)[C@H]3CC[C@]12C [TCDCA, taurochenodeoxycholic acid]
THLE-2 proliferation (THLE-2): significantly promoted
WRL-68 proliferation (WRL-68 [2]): significantly promoted
expression of oncoprotein c-myc (c-myc): increased
expression of tumor suppressor gene CEBPα (CEBPα): reduced
HepG2 cell proliferation (HepG2): significantly promoted; also recorded: markedly increased
